Assay results reported in publication PMC3344887 (PLoS ONE, 2012).
“And” between values parts separate entries of the source, which are not always exact repeats. Equal entries are not always repeated. Where two headings read alike, the source gives them in different places.

Experiments:
NE transporter [1] = settings: cited from earlier work
DAT [2] = settings: cited from earlier work
healthy subjects [3] = assay: Physiologic measures (blood pressure, heart rate, body temperature), clinical study; assay type: in vivo, humans; settings: peak change from baseline, mean±SEM, 16 subjects
Procedure: (§1) The washout periods between the sessions were at least 10 days long.
(§2) Identical placebo (lactose) capsules were prepared. […] Drugs were administered without food.
(§3) Physiologic measures were assessed repeatedly 4, 3, 2, and 1 h before and 0, 0.33, 0.66, 1, 1.5, 2, 2.5, 3, 4, 5, and 6 h after MDMA or placebo administration. Heart rate, systolic blood pressure, and diastolic blood pressure were measured using an OMRON M7 blood pressure monitor (OMRON Healthcare Europe, Hoofddorp, The Netherlands). Measures were taken twice per time point with an interval of 1 min, and the average was used for the analysis. Core (tympanic) temperature was assessed using a GENIUS 2 ear thermometer (Tyco Healthcare Group, Watertown, NY). […] Adverse effects were assessed using the List of Complaints (LC), which consists of 66 items that yield a total adverse effects score and reliably measure physical and general discomfort.
(§4) Clinical data values were transformed to differences from baseline. Peak effects (Emax) were determined for repeated measures. Emax values were compared using General Linear Models repeated-measures analysis of variance, with drug as within-subject factor, using Statistica 6.0 software (StatSoft, Tulsa, OK). Tukey post hoc comparisons were performed based on significant main effects of treatment. Additional analyses of variance were performed, with period as factor to exclude period effects. Correlation analyses were performed using Pearson’s correlations. The criterion for significance was p<0.05. Mean arterial pressure (MAP) was calculated from diastolic blood pressure and systolic blood pressure using the following formula: MAP = DBP+(SBP - DBP)/3.

NE transporter [4] = settings: read-out: Ki, NE transporter; rat cortex synaptosomes; cited from earlier work
healthy subjects [5] = assay: 5-Dimensions of Altered States of Consciousness (5D-ASC), clinical study; assay type: in vivo, humans; settings: p<0.001
Procedure: as §1, §2
(§5) The psychometric measures included Visual Analog Scales (VAS), [10], the Adjective Mood Rating Scale (AMRS), and 5-Dimensions of Altered States of Consciousness (5D-ASC), [23]. […] The VASs were presented as 100 mm horizontal lines marked “not at all" on the left and “extremely" on the right. The VASs for “closeness to others," “open," and “talkative" were bidirectional (±50 mm). The VASs were administered 4 h before and 0, 0.33, 1, 1.5, 2, 2.5, 3, 3.5, 4, and 5 h after MDMA or placebo administration. […] The AMRS contains subscales for activity, extroversion and introversion, well-being, emotional excitation, anxiety-depression, and dreaminess. The 5D-ASC rating scale measures alterations in mood, perception, experience of self in relation to the environment, and thought disorder. The 5D-ASC rating scale comprises five subscales or dimensions and 11 lower-order scales. The 5D-ASC dimension “oceanic boundlessness" (OB, 27 items) measures derealization and depersonalization associated with positive emotional states, ranging from heightened mood to euphoric exaltation. […] The global ASC score was determined by adding the OB, AED, and VR scores. The 5D-ASC scale was administered 4 h after MDMA or placebo administration.

SERT = SERT (Homo sapiens, UniProt P31645)
Chain of SERT (P31645 whole entry): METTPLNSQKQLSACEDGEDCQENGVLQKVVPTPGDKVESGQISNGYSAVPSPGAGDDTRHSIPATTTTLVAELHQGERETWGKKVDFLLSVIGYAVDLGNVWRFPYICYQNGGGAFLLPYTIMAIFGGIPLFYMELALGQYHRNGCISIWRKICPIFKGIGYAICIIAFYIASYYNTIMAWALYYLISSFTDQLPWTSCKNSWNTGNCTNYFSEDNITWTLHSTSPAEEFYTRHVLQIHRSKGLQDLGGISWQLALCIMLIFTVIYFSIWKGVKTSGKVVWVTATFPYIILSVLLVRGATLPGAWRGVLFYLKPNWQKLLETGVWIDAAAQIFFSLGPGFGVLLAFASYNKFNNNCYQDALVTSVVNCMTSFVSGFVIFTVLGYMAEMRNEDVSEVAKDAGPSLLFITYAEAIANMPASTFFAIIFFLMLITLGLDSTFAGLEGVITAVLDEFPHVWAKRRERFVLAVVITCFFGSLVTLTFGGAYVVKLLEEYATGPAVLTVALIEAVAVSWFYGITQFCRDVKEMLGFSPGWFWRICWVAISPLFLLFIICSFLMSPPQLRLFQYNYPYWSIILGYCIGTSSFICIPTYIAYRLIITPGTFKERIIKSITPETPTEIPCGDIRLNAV
Source text: The procedures were adapted from previous studies, [3]. […] This transports the cells through the silicon oil layer to the KOH layer, thereby separating the cells from the buffer, which remains on top of the silicon oil layer. The centrifuge tubes were then transferred to liquid nitrogen. The amount of tracer that remained in the cells was quantified by cutting the frozen centrifuge tube above the KOH/oil interface and putting the tip of the tube with the cell pellet in a scintillation vial that contained 500 µl lysis buffer (0.05 M TRIS-HCl, 50 mM NaCl, 5 mM EDTA, and 1% Nonidet P-40 substitute in water). The samples were then shaken for 1 h on a rotary shaker, and 7 ml of scintillation fluid (Ultimagold, Perkin Elmer, Schwerzenbach, Switzerland) was added. Cell-associated radioactivity was then counted. […] Dose-response curves were generated using 9–11 concentrations of MDMA/MDA. […] All data points were derived from at least three independent experiments, each assayed in triplicate. The data were fit by non-linear regression, and EC50 and Emax values were calculated using Prism (GraphPad, San Diego, CA).

healthy subjects [6] = assay: Adverse effects, List of Complaints, clinical study
Procedure: as §1, §2, §3

healthy subjects [7] = assay: Circulating plasma catecholamines, clinical study; assay type: in vivo, humans; settings: peak change from baseline, mean±SEM, 16 subjects
Procedure: as §1, §2
(§6) Plasma concentrations of copeptin were also determined in this study as reported elsewhere. […] No hydrolysis was performed. Thus, the values for HMMA represent the drug concentrations of the non-conjugated metabolite. All blood samples were collected on ice and centrifuged within 10 min at 4°C. The plasma was then stored at –20°C until the analysis.

healthy subjects [8] = assay: Adjective Mood Rating Scale (AMRS), clinical study; assay type: in vivo, humans; settings: peak change from baseline, mean±SEM, 16 subjects
Procedure: as §1, §2, §5, §4

clinical = settings: for AUC(0-t): AUC0-6
Procedure: as §2, §6
Cmax and tmax were obtained directly from the observed concentration-time curves. […] Terminal elimination half-life (t 1/2) was calculated using λz and the equation t1/2 = ln2/λz. The area under the plasma concentration-time curve up to 6 h (AUC0-6h) was calculated using the linear trapezoidal rule. The AUC0–∞ was determined by extrapolation of AUC0–6h using λz. The PK parameters were determined using the PK functions for Excel (Microsoft, Redmont, CA, USA). Plasma concentrations were only determined up to 6 h after MDMA administration because the aim of the study was to assess potential changes in MDMA plasma levels while relevant pharmacodynamic effects or MDMA were present.

[9] = cited from earlier work; for Mean plasma Cmax: healthy volunteers
healthy subjects [10] = assay: Visual Analog Scales, subjective drug effects, clinical study; assay type: in vivo, humans; settings: peak change from baseline, mean±SEM, 16 subjects
Procedure: as §1, §2, §5, §4

patients = settings: 60-120 mg/day; cited from earlier work
NET [11] = target: T1, NET (Homo sapiens, UniProt P23975); assay: [3H]-NE uptake inhibition, method A (silicon oil); assay type: cell-based; parameters: expressed in transfected cells; host or cells: HEK 293 cells (Invitrogen), stably transfected
T1 sequence (P23975 whole entry): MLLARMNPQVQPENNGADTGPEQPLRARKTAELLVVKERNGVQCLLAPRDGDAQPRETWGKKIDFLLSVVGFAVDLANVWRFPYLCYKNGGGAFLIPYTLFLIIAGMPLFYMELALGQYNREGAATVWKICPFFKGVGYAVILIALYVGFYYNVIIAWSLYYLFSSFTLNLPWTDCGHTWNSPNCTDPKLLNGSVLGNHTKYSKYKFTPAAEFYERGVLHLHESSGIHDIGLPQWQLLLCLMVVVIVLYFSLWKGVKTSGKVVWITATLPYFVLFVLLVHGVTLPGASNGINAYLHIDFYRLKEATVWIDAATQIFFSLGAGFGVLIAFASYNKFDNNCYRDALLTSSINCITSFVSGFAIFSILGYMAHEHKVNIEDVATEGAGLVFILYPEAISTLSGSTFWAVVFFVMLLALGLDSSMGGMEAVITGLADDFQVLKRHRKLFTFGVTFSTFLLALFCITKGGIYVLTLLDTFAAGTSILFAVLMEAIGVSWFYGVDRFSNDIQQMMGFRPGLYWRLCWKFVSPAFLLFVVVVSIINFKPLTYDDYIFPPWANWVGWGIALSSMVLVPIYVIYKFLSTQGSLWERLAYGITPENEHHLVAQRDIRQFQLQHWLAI

NET [12] = target: T1, NET; assay: Radioligand binding, [3H]-nisoxetine, HEK 293 membranes; parameters: expressed in transfected cells; host or cells: HEK 293 cells (Invitrogen), stably transfected
DAT [13] = target: T2, DAT (Homo sapiens, UniProt Q01959); assay: Radioligand binding, [3H]-WIN35,428, HEK 293 membranes; parameters: expressed in transfected cells; host or cells: HEK 293 cells (Invitrogen), stably transfected
DAT [14] = target: T2, DAT; assay: cell-based
NCCc1c[nH]c2ccc(O)cc12 = assay: cells, lysate or membranes; settings: other: method A
[15] = substrate: NCCc1ccc(O)c(O)c1; assay: cells, lysate or membranes; settings: other: method A
[16] = Duloxetine-MDMA session, mean±SEM, n=16
[17] = Placebo-MDMA session, mean±SEM, n=16
[18] = duloxetine-MDMA vs placebo-MDMA

CNCC[C@H](Oc1cccc2ccccc12)c1cccs1 [Duloxetine]
Block of thyramine-induced increases in systolic blood pressure (NE transporter [1]; 60 mg for 14 days): not able to block | Suppression of blood pressure increase due to thyramine (NE transporter [1]; dose of 80-120 mg): effective in suppressing | Lower potency at DAT compared with SERT and NET (DAT [2]): 10- to 100 fold | DPB, Emax (healthy subjects [3]; diastolic blood pressure): 6.00±0.97 mm Hg | MAP, Emax (healthy subjects [3]; mean arterial pressure): 5.11±1.01 mm Hg | Heart rate, Emax (healthy subjects [3]): 5.06±1.27 beats/min | SBP, Emax (healthy subjects [3]; systolic blood pressure): 6.19±1.42 mm Hg | Body temperature, Emax (healthy subjects [3]; tympanic): 0.19±0.04 °C | Ki (NE transporter [4]): 0.0021 µM | Effect on MDMA's effects on the total ASC score (healthy subjects [5]): robustly reduced | Effect on MDMA- and MDA-induced 5-HT release (SERT): completely blocked | List of Complaints (total score), Acute adverse effects (healthy subjects [6]; at 3 h, change from baseline, mean±SEM, 16 subjects): −1.81±1.09 | List of Complaints (total score), Sub-acute adverse effects (healthy subjects [6]; at 24 h, change from baseline, mean±SEM, 16 subjects): −2.88±1.35 | Adverse effects produced (healthy subjects [6]; clinical study): daytime somnolence and moderate insomnia | Circulating Epinephrine, Emax (healthy subjects [7]): 0.46 ± 0.10 nM | Circulating Norepinephrine, Emax (healthy subjects [7]): -0.18 ± 0.07 nM | AMRS Activity, Emin (healthy subjects [8]): −2.69±0.69 | AMRS Dreaminess, Emax (healthy subjects [8]): 1.35±0.35 | AMRS Emotional excitation, Emax (healthy subjects [8]): 0.69±0.27 | AMRS Extroversion, Emax (healthy subjects [8]): 0.38±0.16 | AMRS Introversion, Emax (healthy subjects [8]): 1.13±0.30 | AMRS Well-being, Emax (healthy subjects [8]): 0.38±0.16 | Cmax (clinical; human, in vivo): 112 ± 7.06 ng/mL | concentration at 120 min (clinical; human, in vivo): 314 ± 2.5 nM | Cmax (clinical; human, in vivo, 120 mg): 107 ± 10.2 ng/mL | AUC(0-t) (clinical; human, in vivo): 800 ± 74.4 ng·h/mL | AUC(0-inf) (clinical; human, in vivo, AUC(0-∞)): 1960 ± 230 ng·h/mL | Cmax (clinical; human, in vivo, Plasma concentration Cmax, text of b61): 112 ng/mL and 380 nM | half-life (clinical; human, in vivo, T1/2): 11 ± 1.04 h | Tmax (clinical; human, in vivo, Tmax): 5.14 ± 0.29 h | Mean Cmax at steady state ([9]; 40 mg once daily): 35 ng/mL | Trough level at 24h at steady state ([9]; 40 mg once daily): approximately 10 ng/mL | Increase of AUC ([9]; after pretreatment with paroxetine): 1.6 fold | Elimination half-life [9]: 12 h | Tmax [9]: 6 h | Mean Cmax, population PK ([9]; daily 60 mg): 30 to 60 ng/mL | Mean trough level at 24h, population PK ([9]; daily 60 mg): ~25 ng/mL | Peak level at steady state ([9]; patients, daily 120 mg): 100 ng/mL | Trough level at steady state ([9]; patients, daily 120 mg): 50 ng/mL | Mean plasma Cmax ([9]; single oral dose 30 mg): 22 ng/mL | Mean plasma Cmax ([9]; single oral dose 60 mg): 44 ng/mL | Mean plasma Cmax ([9]; single oral dose 90 mg): 61 ng/mL | VAS Any drug effect, Emax (healthy subjects [10]): 6.00±2.52 | VAS Closeness, Emax (healthy subjects [10]): 0.00±0.00 | VAS Drug high, Emax (healthy subjects [10]): 4.81±2.93 | VAS Drug liking, Emax (healthy subjects [10]): 7.56±4.43 | VAS Good drug effect, Emax (healthy subjects [10]): 8.75±5.01 | VAS Open, Emax (healthy subjects [10]): 0.38±0.38 | VAS Stimulated, Emax (healthy subjects [10]): 5.13±2.45 | VAS Talkative, Emax (healthy subjects [10]): 0.31±0.31 | Incidence of constipation (patients): 11% | Incidence of decreased appetite (patients): 8% | Incidence of dizziness (patients): 9-11% | Incidence of dry mouth (patients): 15-18% | Incidence of fatigue (patients): 14% | Incidence of headache (patients): 20% | Incidence of insomnia (patients): 11-15% | Incidence of nausea (patients): 20-29% | Incidence of sweating (patients): 6%

CNC(C)Cc1ccc(O)c(OC)c1 (stereo not drawn) [HMMA, 4-hydroxy-3-methoxymethamphetamine]
Cmax (clinical; Duloxetine-MDMA session (duloxetine 120 mg 16 and 4 h before MDMA 125 mg), plasma, mean±SEM, n=16): 2.00 ± 0.38 ng/mL | AUC0-6 (clinical; [16]): 8.14 ± 1.45 ng·h/mL | Tmax (clinical; [16]): 1.89 ± 0.25 h | Cmax (clinical; Placebo-MDMA session (MDMA 125 mg), plasma, mean±SEM, n=16): 3.36 ± 0.34 ng/mL | AUC0-6 (clinical; [17]): 13.57 ± 1.58 ng·h/mL | Tmax (clinical; [17]): 1.84 ± 0.17 h | Decrease in AUC0-6h by duloxetine (clinical; [18]): 48±6% | Decrease in Cmax by duloxetine (clinical; [18]): 46±6%

CC(N)Cc1ccc2c(c1)OCO2 (stereo not drawn) [MDA, 3,4-methylenedioxyamphetamine]
Ki (NET [11]): 0.341 µM | Ki (NET [12]): 17.8 ± 4.06 µM | Ki (DAT [13]): 26.4 ± 4.24 µM | Ki (DAT [14]): 11 µM | Cmax (clinical; human, in vivo): 10.7 ± 0.72 ng/mL | Cmax (clinical; human, in vivo, 125 mg): 11.8 ± 0.7 ng/mL | AUC(0-t) (clinical; human, in vivo): 46.6 ± 3.02 ng·h/mL | Tmax (clinical; human, in vivo, Tmax): 5.5 ± 0.22 h

CNCCCN1c2ccccc2CCc2ccccc21 [desipramine]
Block of thyramine-induced SBP responses (NE transporter [1]; no reference given): completely blocked

human SERT (Homo sapiens)
Km (NCCc1c[nH]c2ccc(O)cc12): 0.489 ± 0.147 µM

B1: human DAT (Homo sapiens) (protein)
chain: MSKSKCSVGLMSSVVAPAKEPNAVGPKEVELILVKEQNGVQLTSSTLTNPRQSPVEAQDRETWGKKIDFLLSVIGFAVDLANVWRFPYLCYKNGGGAFLVPYLLFMVIAGMPLFYMELALGQFNREGAAGVWKICPILKGVGFTVILISLYVGFFYNVIIAWALHYLFSSFTTELPWIHCNNSWNSPNCSDAHPGDSSGDSSGLNDTFGTTPAAEYFERGVLHLHQSHGIDDLGPPRWQLTACLVLVIVLLYFSLWKGVKTSGKVVWITATMPYVVLTALLLRGVTLPGAIDGIRAYLSVDFYRLCEASVWIDAATQVCFSLGVGFGVLIAFSSYNKFTNNCYRDAIVTTSINSLTSFSSGFVVFSFLGYMAQKHSVPIGDVAKDGPGLIFIIYPEAIATLPLSSAWAVVFFIMLLTLGIDSAMGGMESVITGLIDEFQLLHRHRELFTLFIVLATFLLSLFCVTNGGIYVFTLLDHFAAGTSILFGVLIEAIGVAWFYGVGQFSDDIQQMTGQRPSLYWRLCWKLVSPCFLLFVVVVSIVTFRPPHYGAYIFPDWANALGWVIATSSMAMVPIYAAYKFCSLPGSFREKLAYAIAPEKDRELVDRGEVRQFTLRHWLKV
Km [15]: 1.707 ± 0.297 µM
